In patent publication US20220280663A1, “[…] TARGETED […] ACTIVE SUBSTANCE OR LABEL […] SYSTEM” (CELLIS AG, priority 2016, published 2022):

Columns and labels:
cancer cells = test: Transfer of iron binding proteins from loaded leukocytes to co-cultured cancer cells; assay type: cell-based; conditions: for transport to cancer cells from granulocytes: loaded granulocytes (FIG. 15); for transport to cancer cells from lymphocytes: loaded lymphocytes (FIG. 16); for transport to cancer cells from macrophages: loaded macrophages, mouse mammary, colon, canine mammary, human breast, pancreatic, bladder cancer cells; for transport to cancer cells from monocytes: loaded monocytes (FIG. 14)
Description: However, in case of cancer cells the ratio of both cell types is crucial. The more macrophages the better and faster the transport is. The most efficient transfer to the cancer cells was observed when ratio of macrophages to cancer cells was 1:1 or more.
This transfer of compounds conjugated with anticancer drugs made the effect inducing apoptosis in cancer cells (FIG. 6, 13).
However, the ratio of both cell types is important. The more monocytes the better and faster the transport is. The most efficient transfer to the cancer cells was observed when ratio of monocytes to cancer cells was 1:1 or more.
However, the ratio of both cell types is crucial. The more granulocytes the better and faster the transport is. The most efficient transfer to the cancer cells was observed when ratio of granulocytes to cancer cells was 1:1 or more.
However, the ratio of both cell types is crucial. The more lymphocytes the better and faster the transport is. The most efficient transfer to the cancer cells was observed when ratio of lymphocytes to cancer cells was 1:1 or more.

CD45^+ leukocyte cell = test: Uptake and storage of iron binding proteins by CD45+ leukocyte cells; assay type: cell-based; conditions: incubation 1-4 hours in protein solution (ferritin 0.8 mg/ml; haemoglobin, transferrin 0.1 mg/ml), standard culture conditions
Protocol: (§1) Obtained cells are incubated in ferritin solution for a time and at the concentration sufficient to ensure proper ratio of ferritin/cell for their full load and also to ensure proper drug content to obtain therapeutic effect or contrast for proper imaging. The time and concentration may vary depending on the number of molecules encapsulated/adsorbed into the ferritin cage, status of cell activation, condition and number of their intended administration.
For example, to ensure proper load with ferritins, cells are incubated for 1-4 hours in ferritin solution 0.8 mg/ml in standard culture conditions. The frame of ferritin concentration may vary at least between 0.01 and 4 mg/ml as well as incubation time (5 min-6 hours or more). Adjusting time and concentration of ferritin load to cells, the influence of ferritin and treatment conditions on cell viability should be minded.
as §1, with “haemoglobin” for “ferritin”, “haemoglobin/cell” for “ferritin/cell”, “linked with” for “encapsulated/adsorbed into”, “haemoglobin molecule,” for “ferritin cage,”, “administration. […]” for “administration.”

Substance | transport to cancer cells from granulocytes (cancer cells) | transport to cancer cells from lymphocytes (cancer cells) | transport to cancer cells from macrophages (cancer cells) | transport to cancer cells from monocytes (cancer cells) | uptake of iron binding protein by cells (CD45^+ leukocyte cell)
haemoglobins: human haemoglobin prepared from fresh red cells (SEQ ID NO: 18 or 22) | very easily transport | very easily transport | very easily transport | very easily transport | very easily uptake
transferrins: human holo-transferrin purified from serum (SEQ ID NO: 28) | very easily transport | very easily transport | very easily transport | very easily transport | very easily uptake
